{"source": "patent US20170247326A1", "about": "“Substituted Pyrrolidine Carboxamide Compounds” (EPIZYME, INC., priority 2014, published 2017)", "data": [{"biological_target": "T1, SMYD2 (Homo sapiens, UniProt Q9NRG4)", "T1 construct": "Full length SMYD2 (NP_064582.2) was cloned; His6 (N, cleaved yes); FLAG (N); made in house; host or cells: Sf9 insect cells", "T1 sequence (Q9NRG4 whole entry)": "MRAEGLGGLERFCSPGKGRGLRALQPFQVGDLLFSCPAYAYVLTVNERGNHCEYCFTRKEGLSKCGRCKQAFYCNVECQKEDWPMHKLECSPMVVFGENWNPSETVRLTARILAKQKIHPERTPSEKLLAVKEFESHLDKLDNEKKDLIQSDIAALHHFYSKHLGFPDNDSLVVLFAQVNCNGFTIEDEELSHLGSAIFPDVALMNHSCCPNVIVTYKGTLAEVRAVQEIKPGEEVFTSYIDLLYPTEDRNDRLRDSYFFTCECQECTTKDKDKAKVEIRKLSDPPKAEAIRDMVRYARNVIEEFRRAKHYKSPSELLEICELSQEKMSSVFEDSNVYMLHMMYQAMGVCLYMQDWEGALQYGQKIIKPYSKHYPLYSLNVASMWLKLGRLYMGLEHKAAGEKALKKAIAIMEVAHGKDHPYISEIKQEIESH", "assay": "SMYD2 biochemical assay (3H-SAM, biotinylated peptide substrate, Flashplate)", "details": "Table 1; average of n = 1 to n = 50; read-out: SMYD2 Biochem IC50", "excerpt": "(§1) S-adenosylmethionine (SAM), S-adenosylhomocysteine (SAH), bicine, Tween20, dimethylsulfoxide (DMSO), bovine skin gelatin (BSG), and Tris(2-carboxyethyl)phosphine hydrochloride (TCEP) were purchased from Sigma-Aldrich at the highest level of purity possible. ^3H-SAM was purchase from American Radiolabeled Chemicals with a specific activity of 80 Ci/mmol. 384-well streptavidin Flashplates were purchased from PerkinElmer.\n(§2) Peptide was synthesized with a N-terminal linker-affinity tag motif and a C-terminal amide cap by 21st Century Biochemicals. The peptide was high high-performance liquid chromatography (HPLC) purified to greater than 95% purity and confirmed by liquid chromatography mass spectrometry (LC-MS). The sequence was […](K-Biot)-amide. (SEQ ID NO: 3)\n(§3) Full length SMYD2 (NP_064582.2) was cloned into a pFastbac-Htb-lic vector with an N-terminal His6 tag and FLAG tag, preceded by a TEV protease cleavage site. The protein was expressed in Sf9 insect cells. Cells were resuspended in lysis buffer (25 mM HEPES-NaOH, pH 7.5, 200 mM NaCl, 5% glycerol, and 5 mM […] and lysed by sonication. The protein was purified by Ni-NTA (Qiagen), followed by TEV cleavage to remove the His6 tag, subtractive Ni-NTA (Qiagen), and gel filtration chromatography using an S200 column (GE Healthcare). Purified protein was stored in 20 mM Tris-HCl, pH 8.0, 100 mM NaCl, and 1 mM TCEP.\n(§4) General Procedure for SMYD2 Enzyme Assays on Peptide Substrates\n(§5) The assays were all performed in a buffer consisting of 20 mM Bicine (pH=7.6), 1 mM TCEP, 0.005% Bovine Skin Gelatin, and 0.002% Tween20, prepared on the day of use. Compounds in 100% DMSO (1 ul) were spotted into a polypropylene 384-well V-bottom plates (Greiner) using a Platemate Plus outfitted with a 384-channel head (Thermo Scientific). DMSO (1 ul) was added to Columns 11, 12, 23, 24, rows A-H for the maximum signal control and 1 ul of SAH, a known product and inhibitor of SMYD2, was added to columns 11, 12, 23, 24, rows I-P for the minimum signal control. A cocktail (40 ul) containing the SMYD2 enzyme was added by Multidrop Combi (Thermo-Fisher). The compounds were allowed to incubate with SMYD2 for 30 min at room temperature, then a cocktail (10 ul) containing ^3H-SAM and peptide was added to initiate the reaction (final volume=51 ul). The final concentrations of the components were as follows: SMYD2 was 1.5 nM, ^3H-SAM was 10 nM, and peptide was 60 nM, SAH in the minimum signal control wells was 1000 uM, and the DMSO concentration was 2%. The assays were stopped by the addition of non-radioactive SAM (10 ul) to a final concentration of 600 uM, which dilutes the ^3H-SAM to a level where its incorporation into the peptide substrate is no longer detectable. 50 ul of the reaction in the 384-well polypropylene plate was then transferred to a 384-well Flashplate and the biotinylated peptides were allowed to bind to the streptavidin surface for at least 1 hour before being washed three times with 0.1% Tween20 in a Biotek ELx405 plate washer. The plates were then read in a PerkinElmer TopCount plate reader to measure the quantity of ^3H-labeled peptide bound to the Flashplate surface, measured as disintegrations per minute (dpm) or alternatively, referred to as counts per minute (cpm).\n(§6) Where dpm=disintegrations per minute, cmpd=signal in assay well, and min and max are the respective minimum and maximum signal controls.\n(§7) Where top and bottom are the normally allowed to float, but may be fixed at 100 or 0 respectively in a 3-parameter fit. The Hill Coefficient normally allowed to float but may also be fixed at 1 in a 3-parameter fit. I is the compound concentration.\n(§8) SMYD2 biochemical assay data for representative Compounds of the Disclosure are presented in Tables 1, 3, and 4 in the column titled “SMYD2 Bicohem IC50 (μM).”", "units": {"IC50": "µM"}, "values": [{"compound": "C[C@H]1CN(C2CC2)C[C@@H]1NC(=O)c1ccc(N2CCCC2)cc1", "note": "(racemic) [compound 20, (±)-trans-N-(1-cyclopropyl-4-methylpyrrolidin-3-yl)-4-(pyrrolidin-1-yl)benzamide]", "IC50": "> 50"}, {"compound": "C[C@@H]1CN(C2CC2)C[C@H]1NC(=O)c1cc(O)nn1C", "note": "(racemic) [compound 15, (±)-trans-H-(1-cyclopropyl-4-methylpyrrolidin-3-yl)-3-hydroxy-1-methyl-1H-pyrazole-5-carboxamide]", "IC50": "> 50"}, {"compound": "C[C@@H]1CN(C2CC2)C[C@@H]1NC(=O)c1ccc2c(c1)OC(F)(F)O2", "note": "(racemic) [compound 2, (±)-cis-N-(1-cyclopropyl-4-methylpyrrolidin-3-yl)-2,2-difluorobenzo[d][1,3]dioxole-5-carboxamide]", "IC50": "> 50"}, {"compound": "Cc1cc(C(=O)N[C@@H]2CN(C3CC3)C[C@@H]2C)n(Cc2ccccc2)n1", "note": "(racemic) [compound 10, (±)-cis-1-benzyl-N-(1-cyclopropyl-4-methylpyrrolidin-3-yl)-3-methyl-1H-pyrazole-5-carboxamide]", "IC50": "> 50"}, {"compound": "C[C@H]1CN(C2CC2)C[C@@H]1NC(=O)c1ccc2[nH]c(=O)[nH]c2c1", "note": "(racemic) [compound 22, (±)-trans-N-(1-cyclopropyl-4-methylpyrrolidin-3-yl)-2-oxo-2,3-dihydro-1H-benzo[d]imidazole-5-carboxamide]", "IC50": "> 50"}, {"compound": "C[C@H]1CN(C2CC2)C[C@H]1NC(=O)c1ccc2c(c1)CC(=O)N2", "note": "(racemic) [Cpd. No. 6, (±)-cis-N-(1-cyclopropyl-4-methylpyrrolidin-3-yl)-2-oxoindoline-5-carboxamide]", "IC50": "> 50"}]}, {"biological_target": "T1, SMYD2", "assay": "SMYD2 biochemical assay (3H-SAM, biotinylated peptide substrate, Flashplate)", "details": "Table 3; average of n = 1 to n = 50; read-out: SMYD2 Biochem IC50", "excerpt": "as §1, §2, §3, §4, §5, §6, §7, §8", "units": {"IC50": "µM"}, "values": [{"compound": "C[C@H]1CN(Cc2ccc(OCc3ccccc3)cc2)C[C@@H]1NC(=O)c1cc(C2CC2)cnn1", "note": "(racemic) [compound 107, (±)-trans-N-(1-{[4-(benzyloxy)phenyl]methyl}-4-methylpyrrolidin-3-yl)-5-cyclopropylpyridazine-3-carboxamide]", "IC50": 2.7}, {"compound": "CC(C)N1C[C@H](C)[C@H](NC(=O)c2n[nH]c(C3CC3)n2)C1", "note": "(racemic) [compound 84, (±)-cis-5-cyclopropyl-N-[4-methyl-1-(propan-2-yl)pyrrolidin-3-yl]-1H-1,2,4-triazole-3-carboxamide]", "IC50": 36.8}, {"compound": "C[C@H]1CN(C)C[C@H]1NC(=O)c1cc(C2CC2)cnn1", "note": "(racemic) [compound 103, (±)-cis-5-cyclopropyl-N-(1,4-dimethylpyrrolidin-3-yl)pyridazine-3-carboxamide]", "IC50": 1.67}, {"compound": "CC(C)N1C[C@H](C)[C@H](NC(=O)c2ccc(C3CC3)[nH]c2=O)C1", "note": "(racemic) [compound 83, (±)-cis-6-cyclopropyl-N-[4-methyl-1-(propan-2-yl)pyrrolidin-3-yl]-2-oxo-1,2-dihydropyridine-3-carboxamide]", "IC50": "> 50"}, {"compound": "CC(C)N1C[C@H](C)[C@H](NC(=O)c2ncc(C3CC3)s2)C1", "note": "(racemic) [compound 69, (±)-cis-5-cyclopropyl-N-[4-methyl-1-(propan-2-yl)pyrrolidin-3-yl]-1,3-thiazole-2-carboxamide]", "IC50": 3.3}, {"compound": "CC(C)N1C[C@H](C)[C@H](NC(=O)c2cnc(C3CC3)cn2)C1", "note": "(racemic) [compound 51, (±)-cis-5-cyclopropyl-N-[4-methyl-1-(propan-2-yl)pyrrolidin-3-yl]pyrazine-2-carboxamide]", "IC50": "> 50"}, {"compound": "CC(C)N1C[C@@H](C)[C@H](NC(=O)c2cnnc(C3CC3)c2)C1", "note": "(racemic) [compound 65, (±)-trans-6-cyclopropyl-N-[4-methyl-1-(propan-2-yl)pyrrolidin-3-yl]pyridazine-4-carboxamide]", "IC50": "> 50"}, {"compound": "CC(C)N1C[C@H](C)[C@H](NC(=O)c2csnc2C2CC2)C1", "note": "(racemic) [compound 92, (±)-cis-3-cyclopropyl-N-[4-methyl-1-(propan-2-yl)pyrrolidin-3-yl]-1,2-thiazole-4-carboxamide]", "IC50": 19.6}, {"compound": "CC(C)N1CCC(C(=O)Nc2cc(O)c3c(c2)OCC(=O)N3)C1", "note": "(centres unmarked) [compound 87, N-(5-hydroxy-3-oxo-3,4-dihydro-2H-1,4-benzoxazin-7-yl)-1-(propan-2-yl)pyrrolidine-3-carboxamide]", "IC50": "> 50"}, {"compound": "CC(C)N1C[C@@H](C)[C@H](NC(=O)c2nc(C3CC3)cs2)C1", "note": "(racemic) [compound 36, (±)-trans-4-cyclopropyl-N-[4-methyl-1-(propan-2-yl)pyirolidin-3-yl]-1,3-thiazole-2-carboxamide]", "IC50": "> 50"}, {"compound": "CC(C)N1C[C@@H](C)[C@H](NC(=O)c2cncc(C3CC3)n2)C1", "note": "(racemic) [compound 43, (±)-trans-6-cyclopropyl-N-[4-methyl-1-(propan-2-yl)pyrrolidin-3-yl]pyrazine-2-carboxamide]", "IC50": "> 50"}, {"compound": "CC(C)N1C[C@@H](C)[C@H](NC(=O)c2cc(C3CC3)ncn2)C1", "note": "(racemic) [compound 68, (±)-trans-6-cyclopropyl-N-[4-methyl-1-(propan-2-yl)pyrrolidin-3-yl]pyrimidine-4-carboxamide]", "IC50": "> 50"}, {"compound": "CC(C)N1C[C@H](C)[C@H](NC(=O)c2cc3c(cn2)OC(F)(F)O3)C1", "note": "(racemic) [compound 75, (±)-cis-2,2-difluoro-N-[4-methyl-1-(propan-2-yl)pyrrolidin-3-yl]-2H-[1,3]dioxolo[4,5-c]pyridine-6-carboxamide]", "IC50": "> 50"}, {"compound": "CC(C)N1C[C@H](C)[C@H](NC(=O)c2cc(C3CC3)ccn2)C1", "note": "(racemic) [compound 105, (±)-cis-4-cyclopropyl-N-[4-methyl-1-(propan-2-yl)pyrrolidin-3-yl]pyridine-2-carboxamide]", "IC50": 0.694}, {"compound": "CC(C)N1C[C@H](C)[C@H](NC(=O)c2ncc(C3CC3)cn2)C1", "note": "(racemic) [compound 59, (±)-cis-5-cyclopropyl-N-[4-methyl-1-(propan-2-yl)pyrrolidin-3-yl]pyrimidine-2-carboxamide]", "IC50": "> 50"}, {"compound": "CC(C)N1C[C@@H](C)[C@H](NC(=O)c2ncc(C3CC3)s2)C1", "note": "(racemic) [compound 72, (±)-trans-5-cyclopropyl-N-[4-methyl-1-(propan-2-yl)pyrrolidin-3-yl]-1,3-thiazole-2-carboxamide]", "IC50": "> 50"}, {"compound": "CC(C)N1C[C@@H](C)[C@H](NC(=O)c2cn(C(C)C)nn2)C1", "note": "(racemic) [compound 24, (±)-trans-N-[4-methyl-1-(propan-2-yl)pyrrolidin-3-yl]-1-(propan-2-yl)-1H-1,2,3-triazole-4-carboxamide]", "IC50": "> 50"}, {"compound": "CC(=O)N[C@@H]1CN(C(C)C)C[C@@H]1C", "note": "(racemic) [compound 40, (±)-cis-N-[4-methyl-1-(propan-2-yl)pyrrolidin-3-yl]acetamide]", "IC50": "> 50"}]}, {"biological_target": "T1, SMYD2", "assay": "SMYD2 biochemical assay (3H-SAM, biotinylated peptide substrate, Flashplate)", "details": "Table 4; average of n = 1 to n = 50; read-out: SMYD2 Biochem IC50", "excerpt": "as §1, §2, §3, §4, §5, §6, §7, §8", "units": {"IC50": "µM"}, "values": [{"compound": "C[C@H]1CN(Cc2ccc(OCc3ccccc3)cc2)C[C@@H]1NC(=O)c1cc(C2CC2)cnn1", "note": "(racemic) [compound 132, rac-N-((3R,4S)-1-(4-(benzyloxy)benzyl)-4-methylpyrrolidin-3-yl)-5-cyclopropylpyridazine-3-carboxamide]", "IC50": 2.7}, {"compound": "C[C@@H]1CN(Cc2ccc(OCc3ccccc3)cc2)C[C@@H]1NC(=O)c1cn(C2CC2)nn1", "note": "(stereo in doubt) [compound 131, rac-N-((3R,4R)-1-(4-(benzyloxy)benzyl)-4-methylpyrrolidin-3-yl)-1-cyclopropyl-1H-1,2,3-triazole-4-carboxamide]", "IC50": 0.46}]}]}
